Reference: US20100029612A1, “2-Aminoethyl Substituted Pyrimidin-2-Ones Cyclopropanes, Pyrazolines, Pyrimidines and Benzothiazepines and Their Uses as Urotensin II and Somatostatin 5 Receptor Ligands” (priority 2003, published 2010)

What was measured:
[1] = Stability to oxidation by air during storage; assay type: physicochemical
Method: A pyrazoline scaffold was prepared by the condensation of compound of formula VI of Example 1 with methylhydrazine in the presence of L-InCl3. […] The stereochemistry of the major isomer was confirmed as having an anti-configuration by the strong interaction between […] in the diethylamino chain and by the absence of any NOESY correlation between H4 (3.56 ppm) and H5 (3.98 ppm). […]

UII receptor = target: T1, UII receptor (Homo sapiens, UniProt Q9UKP6); experiment: R-SAT functional mammalian cell-based agonist assay, UII receptor; conditions: for selectivity UII versus SST5 receptor (in words): UII and SST5 receptors; for UII Eff.: agonist efficacy; for UII Eff. / UII pEC50 / EC50: transfected NIH3T3 cells; for UII pEC50 / EC50: agonist; for agonist activity at the UII receptor (in words): potency similar to AC-7954; for EC50: read-out: UII pEC50 (converted)
T1 construct: expressed in transfected cells; host or cells: NIH3T3 cells, receptor plasmid in PSI Mammalian Expression Vector (PROMEGA)
T1 sequence (Q9UKP6 1-389): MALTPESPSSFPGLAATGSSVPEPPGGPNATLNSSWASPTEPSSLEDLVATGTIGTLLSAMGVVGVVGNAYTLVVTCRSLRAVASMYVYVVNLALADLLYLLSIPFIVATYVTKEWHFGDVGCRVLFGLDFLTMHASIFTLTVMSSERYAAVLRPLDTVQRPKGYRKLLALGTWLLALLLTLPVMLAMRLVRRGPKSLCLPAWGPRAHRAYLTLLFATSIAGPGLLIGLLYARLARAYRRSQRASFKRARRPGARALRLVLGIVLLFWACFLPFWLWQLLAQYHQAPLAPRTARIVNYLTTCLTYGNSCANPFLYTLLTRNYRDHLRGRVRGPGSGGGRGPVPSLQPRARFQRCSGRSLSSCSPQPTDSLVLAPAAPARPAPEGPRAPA
Method: (§1) The compounds I to VI were tested as agonist at the UII and SST5 receptors in the functional mammalian cell-based assay R-SAT, described in U.S. Pat. Nos. 5,707,798, 5,912,132, and 5,955,281.
(§2) R-SAT assays were performed using NIH3T3 cells grown in tissue culture treated rollerbottles to 40-50% confluence. Cells were transfected for 12-16 hours with plasmid DNAs using SUPERFECT (QIAGEN) as per manufacture's protocols. R-SAT's were generally performed with 10 μg/rollerbottle of receptor and 50 μg/rollerbottle of beta-galactosidase plasmid DNA. All receptor and G-protein constructs used were in the PSI Mammalian Expression Vector (PROMEGA). The transfected cells were then trypsinized and frozen in DMEM containing 10% DMSO. Frozen cells were later thawed, plated at 10,000-40,000 cells per well of a 96½ area plate that contained drug. Cells were then grown in a humidified atmosphere with 5% ambient CO2 for five days. Media was then removed from the plates and marker gene activity was measured by the addition of the beta-galactosidase substrate ONPG (in PBS with 5% NP-40). The resulting colorimetric reaction was measured in a spectrophotometric plate reader (Titertek Inc.) at […].

SST5 receptor = target: T2, SST5 receptor (Homo sapiens, UniProt P35346); experiment: R-SAT functional mammalian cell-based agonist assay, SST5 receptor; conditions: transfected NIH3T3 cells; for SST5 Eff.: agonist efficacy; for EC50: agonist, read-out: SST5 pEC50 (converted)
T2 construct: expressed in transfected cells; host or cells: NIH3T3 cells, receptor plasmid in PSI Mammalian Expression Vector (PROMEGA)
Method: as §1, §2

T2 sequence (P35346 whole entry): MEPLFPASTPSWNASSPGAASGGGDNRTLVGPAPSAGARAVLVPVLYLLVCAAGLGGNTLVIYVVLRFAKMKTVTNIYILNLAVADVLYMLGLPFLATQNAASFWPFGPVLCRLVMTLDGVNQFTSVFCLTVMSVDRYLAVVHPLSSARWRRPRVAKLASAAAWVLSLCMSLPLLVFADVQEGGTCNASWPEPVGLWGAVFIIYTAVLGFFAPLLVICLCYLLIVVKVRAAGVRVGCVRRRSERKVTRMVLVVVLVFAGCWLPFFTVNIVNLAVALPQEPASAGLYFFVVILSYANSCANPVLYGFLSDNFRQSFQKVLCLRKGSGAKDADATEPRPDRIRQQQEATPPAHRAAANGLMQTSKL

## CCN(CC)CCC1C(c2ccccc2)=NN(C)C1c1ccc(Cl)cc1 (mixture of isomers) [III, anti/syn-5-(4-Chloro-phenyl)-4-(2-diethylamino-ethyl)-1-methyl-3-phenyl-4,5-dihydro-1H-pyrazole]
[1]
  stability of the pyrazoline core to oxidation by air: stable to oxidation by air during storage
UII receptor
  selectivity UII versus SST5 receptor (in words): selective UII agonists
  UII Eff.: 31
  UII pEC50: 5.4
  agonist activity at the UII receptor (in words): partial to full agonists

## CCN(CC)CC[C@@H]1C(c2ccccc2)=Nc2ccccc2S[C@H]1c1ccc(Cl)cc1 (relative stereo) [V, anti-2-(4-Chloro-phenyl)-3-(2-diethylamino-ethyl)-4-phenyl-2,3-dihydro-benzo-[b]-[1,4]-thiazepine]
UII receptor
  selectivity UII versus SST5 receptor (in words): activity at both the UII and SST5 receptors
  UII Eff.: 92
  EC50: 5.01 µM
  agonist activity at the UII receptor (in words): partial to full agonists
SST5 receptor
  SST5 Eff.: 60
  EC50: 10 µM

## CCN(CC)CCc1c(-c2ccccc2)nc(-c2ccccc2)nc1-c1ccc(Cl)cc1 [IV, 4-(4-Chloro-phenyl)-5-(2-diethylamino-ethyl)-2,6-diphenyl-pyrimidine]
other
  melting point: 90.5 to 92.3 °C

## CN(C)CCC1(c2ccc(Cl)cc2)Cc2ccccc2C(=O)O1 (stereo not drawn) [AC-7954, reference compound]
UII receptor
  UII Eff.: 120
  UII pEC50: 5.7

## CCN(CC)CCC1=C(c2ccccc2)NC(=O)N(C)C1c1ccc(Cl)cc1 (stereo not drawn) [I]
UII receptor
  selectivity UII versus SST5 receptor (in words): selective UII agonists
  UII Eff.: 68
  EC50: 6.31 µM
  agonist activity at the UII receptor (in words): partial to full agonists

## CCN(CC)CCC(=Cc1ccc(Cl)cc1)C(=O)c1ccccc1 (mixture of isomers) [Starting material]
UII receptor
  selectivity UII versus SST5 receptor (in words): activity at both the UII and SST5 receptors
  UII Eff.: 35
  EC50: 1.58 µM
  agonist activity at the UII receptor (in words): partial to full agonists
SST5 receptor
  SST5 Eff.: 41
  EC50: 6.31 µM
